This passage reports IC50 and GI50 results from patent US20250082633A1, “COMPOUNDS AND METHODS FOR MODULATING SPLICING” (REMIX THERAPEUTICS INC., priority 2021, published 2025).

The test system of one assay is Target C. Kind of assay: HiBit protein abundance assay, Target C. Format: cell-based. Conditions: Homo sapiens; K562 HiBiT-modified cells, 24 hours, luminescence. The essentials: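 K562 cells with endogenous target HiBiT knock-in, 10000 cells/well in IMDM+1% FBS, treated 24 h at 37 °C with 10-point 3-fold dilutions (top 10 μM final, DMSO ≤0.25%). Abundance read by Nano-Glo HiBiT lytic luminescence, normalised to unmodified-cell and DMSO controls; four-parameter fit gives concentration for 50% abundance.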
A general note: With HiBiT, luminescence reflects the tagged protein that the partner subunit can reach.

The next assay has as its system K562 cells. The assay can be described thus: Cell Titer Glo 2.0 cell viability assay. Format: cell-based. Conditions: Homo sapiens, 500 cells/well, 72 hours. The procedure, abridged:
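K562 cells (500/well) in IMDM with 10% FBS were exposed to serially diluted compounds at 0.1% DMSO final. After 72 h at 37° C, 5% CO2, viability was read by CellTiter-Glo 2.0 luminescence, with medium-only blanks.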

The test system of assay [1] is HiBiT-tagged MYB protein in K562 cells. The assay can be described thus: HiBit protein abundance assay, MYB. Conditions: K562 HiBiT-modified cells, 24 hours, luminescence. Format: cell-based, human. The essentials:
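K562 lines with endogenously HiBiT-tagged target, 10000 cells/well in IMDM + 1% FBS, treated 24 h at 37 °C with 10-point 3-fold dilutions (top 10 μM final, DMSO ≤0.25%). Abundance read by Nano-Glo HiBiT lytic luminescence; IC50 is concentration giving 50% of untreated level, four-parameter fit.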

`Cc1cn2nc(-c3cc(F)c4nn(C5CCN(CCO)C6(CC6)C5)cc4c3)cc(C)c2n1` (stereo not drawn) [Compound 180, 2-[7-[5-(2,8-dimethylimidazo[1,2-b]pyridazin-6-yl)-7-fluoro-indazol-2-yl]-4-azaspiro[2.5]octan-4-yl]ethanol]: the IC50 (usually the concentration at which inhibition is half-maximal) was less than 100 nM with Target C and 100 to 1000 nM in assay [1]. Moreover, the GI50 – broadly, the concentration at which growth is held to half of that of the control – in the assay with K562 cells lay within 100 to 1000 nM.

For `Cn1cc2cc(-c3cc(F)c4nn(C5CCNCC5)nc4c3)cc(F)c2n1` [Compound 103, 4-fluoro-6-(7-fluoro-2-methyl-indazol-5-yl)-2-(4-piperidyl) benzotriazole], the IC50 is 100 to 1000 nM in the assay with Target C and 1000 to 10000 nM in assay [1]. For the same compound, the GI50 with K562 cells is 1000 to 10000 nM.

As to `Cc1cc(-n2cc3cc(C4CCNCC4)cc(F)c3n2)cc2cn(C)nc12` [Compound 115, 2-(2,7-dimethylindazol-5-yl)-7-fluoro-5-(4-piperidyl)indazole], the IC50 (in the assay on Target C; in assay [1]) was 1000 to 10000 nM in each case. The same compound gave a 50% growth inhibitory concentration (GI50) in the assay with K562 cells of 1000 to 10000 nM.

As for `Cc1cn2nc(-c3cc(F)c4nn([C@@H]5CCNC[C@H]5F)cc4c3)cc(C)c2n1` [Compound 168, 6-(7-fluoro-2-((3R,4R)-3-fluoropiperidin-4-yl)-2H-indazol-5-yl)-2,8-dimethylimidazo [1,2-b]pyridazine], the IC50 (with Target C; in assay [1]) was 100 to 1000 nM in each case. The same compound registered a GI50 in the assay on K562 cells of 100 to 1000 nM.

With `Cc1nc2c(C)cc(-n3cc4cc(N5CCNCC5)cc(F)c4n3)cc2o1` [Compound 119, 6-(7-fluoro-5-piperazin-1-yl-indazol-2-yl)-2,4-dimethyl-1,3-benzoxazole], the figures for the concentration for half-maximal inhibition (IC50) (in the assay with Target C; in assay [1]) were more than 10000 nM and 1000 to 10000 nM, respectively. In addition, the GI50 in the assay with K562 cells was more than 10000 nM.

In the case of `Cc1cc(-n2cc3cc(N4CCNCC4)ccc3n2)cc2cn(C)nc12` [Compound 121, 2,7-dimethyl-5-(5-piperazin-1-ylindazol-2-yl)indazole], the half-inhibitory concentration (IC50) (in the assay with Target C; in assay [1]) was more than 10000 nM each time. Further, in the assay on K562 cells, the 50% growth inhibitory concentration (GI50) was in the range of 1000 to 10000 nM.
